{
  "source": "patent US20200085047A1",
  "about": "“Use of an Acyclic Picolinamide Compound as a Fungicide for Control of Phytopathogenic Fungi in Vegetables” (Dow AgroSciences LLC, priority 2017, published 2020)",
  "format_in_all_cases": "in vivo",
  "key": {"[1]": {"test_system": "Stagonosporopsis cucurbitacearum", "assay": "Field assessment of Stagonosporopsis cucurbitacearum (DIDYBR) on watermelon", "settings": "10% SC; for Percent control based on AUDPC, DIDYBR, adjuvant II: Agnique BP420 (50% w/w at 0.3% v/v)", "excerpt": "Field Assessment of Stagonosporopsis Cucurbitacearum (DIDYBR) on Watermelon:\nA 10% SC formulation of compound I was tanked mixed with four different adjuvants: Agnique BP420 (50% w/w at 0.3% v/v); Trycol (50% w/w at 0.1% v/v); Ethomeen T18H (50% w/w at 0.2% v/v); and Phase II (50% w/w at 0.2% v/v). A fungicidal treatment containing formulations of compound I, either alone or with adjuvants, was sprayed on watermelon plants four times, the first application approximately 2 months after planting, with the following three applications in 7-10 day intervals. Formulations of compound I were applied at rates of 50, 100, 150 and 200 grams of active ingredient per hectare (g ai/ha). The experimental plots were inoculated with the gummy stem blight pathogen 2 days after the first application. The treatment was part of an experimental trial designed as a randomized complete block with four replications and a plot of approximately 2.5×1.4 m. Formulations of compound I were applied at water volume of 675 L/ha.\nDisease severity was recorded as the length of stem lesion and as percent area diseased foliage (3 random plants per plot). Watermelon gummy stem blight infection was assessed twice, the first at 6 days after the first application (6 DAAA), followed by 19 DAAD. Area under the disease progress curve (AUDPC) was calculated for each plot using the sets of recorded severity data. Relative AUDPC (% control based on AUDPC) was calculated as percent of the nontreated control."}, "Colletotrichum capsici": {"test_system": "Colletotrichum capsici", "assay": "Field assessment of Colletotrichum capsici (COLLCA) on hot peppers, 4 day curative", "settings": "5% EC + Trycol, hot pepper", "excerpt": "Field Assessment of Colletotrichum capsici (COLLCA) on Hot Peppers:\nFor the 4 day curative trial, a fungicidal treatment containing a 5% EC formulation of compound I plus an adjuvant (Trycol, 50% w/w at 0.2% v/v), was sprayed on hot pepper plants (CPSAN) twice, the first application at the flowering and fruiting stage 59 days after planting, with the second application after 7 days. Formulations of compound I were applied at rates of 50, 100, 150 and 200 grams of active ingredient per hectare (g ai/ha). The experimental plots were inoculated with the anthracnose pathogen 4 days before the first application (curative). The treatment was part of an experimental trial designed as a randomized complete block with four replications and a plot of approximately 2×1 m, with formulations of compound I being applied at water volume of 1200 L/ha.\n(§1) Disease severity was assessed as the percent fruit area diseased per plant (6 plants per plot randomly). Anthracnose infection was assessed four times, 7 days after application A (DAAA), plus 7, 14 and 21 DAAB. Area under the disease progress curve (AUDPC) was calculated for each plot using the sets of recorded visual infection data. Relative AUDPC (% control based on AUDPC) was calculated as percent of the nontreated control."}, "Sclerotinia sclerotiorum": {"test_system": "Sclerotinia sclerotiorum", "assay": "Field assessment of Sclerotinia sclerotiorum (SCLESC) on lettuce, 2 day protectant", "settings": "5% EC + Trycol", "excerpt": "Field Assessment of Sclerotinia sclerotiorum (SCLESC) on Lettuce:\nA fungicidal treatment containing a 5% EC formulation of compound I plus an adjuvant (Trycol, 50% w/w at 0.2% v/v), was sprayed on head lettuce plants (LACSC) twice, the first application at the heading stage 36 days after planting, and the second application 7 days later. Formulations of compound I were applied at rates of 50, 100, and 150 grams of active ingredient per hectare (g ai/ha). The experimental plots were inoculated with sclerotinia rot pathogen 2 days after the first application. The treatment was part of an experimental trial designed as a randomized complete block with four replications and a plot of approximately 2×1 m, with formulations of compound I being applied at water volume of 800 L/ha.\nas §1, with “infection percentage” for “severity”, “calculated by” for “assessed as”, “equation (stem lesion lengths)/(total stem lengths)×100%” for “percent fruit area diseased”, “Sclerotinia rot” for “Anthracnose”, “(DAAA)” for “(DAAA),”"}},
  "data": [
    {"smiles": "COc1ccnc(C(=O)N[C@@H](C)C(=O)O[C@@H](C)C(c2ccc(F)cc2)c2ccc(F)cc2)c1OC(C)=O", "note": "[Compound I, (S)-1,1-bis(4-fluorophenyl)propan-2-yl (3-acetoxy-4-methoxypicolinoyl)-L-alaninate]", "values": [
      {"measurement": "Percent control based on AUDPC, DIDYBR, adjuvant II", "setting": "[1]; 50 g ai/ha", "value": "A (76-100)"},
      {"measurement": "Percent control based on AUDPC, DIDYBR, adjuvant II", "setting": "[1]; 100 g ai/ha", "value": "A (76-100)"},
      {"measurement": "Percent control based on AUDPC, DIDYBR, adjuvant IV", "setting": "[1]; 100 g ai/ha, Ethomeen T18H (50% w/w at 0.2% v/v)", "value": "B (51-75)"},
      {"measurement": "Percent control based on AUDPC, DIDYBR, adjuvant V", "setting": "[1]; 100 g ai/ha, Phase II (50% w/w at 0.2% v/v)", "value": "B (51-75)"},
      {"measurement": "Percent control based on AUDPC, DIDYBR, adjuvant III", "setting": "[1]; 100 g ai/ha, Trycol (50% w/w at 0.1% v/v)", "value": "B (51-75)"},
      {"measurement": "Percent control based on AUDPC, DIDYBR, adjuvant I", "setting": "[1]; 100 g ai/ha, no adjuvant", "value": "B (51-75)"},
      {"measurement": "Percent control based on AUDPC, DIDYBR, adjuvant II", "setting": "[1]; 150 g ai/ha", "value": "A (76-100)"},
      {"measurement": "Percent control based on AUDPC, DIDYBR, adjuvant II", "setting": "[1]; 200 g ai/ha", "value": "A (76-100)"},
      {"measurement": "Percent control based on AUDPC, COLLCA 4 DC", "setting": "Colletotrichum capsici; 50 g ai/ha", "value": "C (26-50)"},
      {"measurement": "Percent control based on AUDPC, COLLCA 4 DC", "setting": "Colletotrichum capsici; 100 g ai/ha", "value": "B (51-75)"},
      {"measurement": "Percent control based on AUDPC, COLLCA 4 DC", "setting": "Colletotrichum capsici; 150 g ai/ha", "value": "B (51-75)"},
      {"measurement": "Percent control based on AUDPC, COLLCA 4 DC", "setting": "Colletotrichum capsici; 200 g ai/ha", "value": "B (51-75)"},
      {"measurement": "Percent control based on AUDPC, SCLESC 2 DP", "setting": "Sclerotinia sclerotiorum; 50 g ai/ha", "value": "B (51-75)"},
      {"measurement": "Percent control based on AUDPC, SCLESC 2 DP", "setting": "Sclerotinia sclerotiorum; 100 g ai/ha", "value": "A (76-100)"},
      {"measurement": "Percent control based on AUDPC, SCLESC 2 DP", "setting": "Sclerotinia sclerotiorum; 150 g ai/ha", "value": "A (76-100)"}
    ]}
  ]
}
